Key:
osteoarthritic mice = settings: mouse, in vivo
[1] = tested on: Human prostate adenocarcinoma PC-3 cells; design: species or system SCID mice; settings: mouse, in vivo
[2] = tested on: VEGF-induced angiogenesis; design: species or system C57BL/6 mice; settings: mouse, in vivo
TNF = format: binding
osteoarthritis rats = tested on: osteoarthritis rats; design: species or system Sprague-Dawley rats; settings: rat, in vivo
[3] = mouse, in vivo, iv, 30 mg/kg
VEGF = format: binding
osteoarthritic rats = settings: rat, in vivo
integrin αIIbβ3 = biological target: T1, integrin αIIbβ3 (Homo sapiens, UniProt P05106+P08514); format: cell-based
T1 construct: host or cells: CHO (CHO-αIIbβ3)

Endothelin ETA = biological target: T2, Endothelin ETA (Homo sapiens, UniProt P25101); format: binding
T2 construct: MDS Pharma services, Taipei, Taiwan (contract assay)
T2 sequence (P25101 21-427): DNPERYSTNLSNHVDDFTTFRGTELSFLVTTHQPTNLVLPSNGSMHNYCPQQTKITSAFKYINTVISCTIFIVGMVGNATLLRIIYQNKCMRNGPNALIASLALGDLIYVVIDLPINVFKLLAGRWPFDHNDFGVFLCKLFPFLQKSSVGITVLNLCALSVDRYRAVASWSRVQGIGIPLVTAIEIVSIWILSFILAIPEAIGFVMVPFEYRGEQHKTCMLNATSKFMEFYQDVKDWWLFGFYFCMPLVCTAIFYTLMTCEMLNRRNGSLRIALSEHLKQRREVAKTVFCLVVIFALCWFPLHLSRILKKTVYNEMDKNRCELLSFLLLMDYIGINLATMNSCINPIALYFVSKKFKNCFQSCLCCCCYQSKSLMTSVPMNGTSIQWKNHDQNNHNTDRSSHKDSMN

Which results are given for “RD: rhodostomin variant having a RGD motif variant ^48PRLDMP^53, SEQ ID NO: 36”?
osteoarthritis-induced elevation of serum cytokines (c-reactive protein, IL-1, IL-6) (osteoarthritic mice): markedly inhibited the osteoarthritis-induced elevation of cytokines; PC-3 tumor-induced osteolysis (radiographs) [1]: inhibited osteolysis; inhibition in tumor cell-induced swelling in hind legs [1]: 43.8±4.1%; tumor-induced decrease in body weight [1]: prevented the loss of body weight; tumor-induced increase in C-terminal telopeptides of type-I collagen [1]: inhibited a tumor-induced increase in C-terminal telopeptides; tumor-induced increase in the serum calcium concentration (hypercalcemia) ([1]; 1.5 mg/kg): inhibited a tumor-induced increase in the serum calcium concentration; tumor growth in legs (in words) ([1]; sc, 1.5 mg/kg): inhibited tumor growth; hemoglobin content in MATRIGEL plugs [2]: reduced hemoglobin content; inhibition of angiogenesis in MATRIGEL plug [2]: effective in inhibiting angiogenesis; Inhibition, TNF (TNF): 4%; chondrocyte layer destruction in knee joint (osteoarthritis rats): inhibited the chondrocyte layer destruction; survival of mice [3]: did not affect the survival of mice; Inhibition, VEGF (VEGF): −14%; osteoarthritis-induced elevation of serum cytokines (c-reactive protein, IL-1β, IL-6) (osteoarthritic rats): markedly inhibited the osteoarthritis-induced elevation of cytokines; increase of IC50 in inhibition of integrin αIIbβ3 as compared to Rho (integrin αIIbβ3): more than 104 fold; Inhibition, Endothelin ETA (Endothelin ETA): 26%
